Reference: article PMC5033714 (Neuron, 2016)

Legend:
[1] = system: GluN1/2B-D receptors; format: cell-based
[2] = Solubility-limited maximal concentration in recording solution; format: physicochemical; conditions: extracellular recording solution pH 7.4, DMSO < 0.3%
[3] = target: GluN1-CC/2A receptors (GluN1-N499C+Q686C) (Rattus norvegicus, UniProt P35439+Q00959, N499C/Q686C); format: cell-based; conditions: 100 μM glutamate alone; glycine 300 μM, 7CKA 10 μM, TCN-201 5 μM, MPX-004 10 μM, MPX-007 30 μM
[4] = target: GluN1/2A receptors (Rattus norvegicus, UniProt P35439+Q00959); format: cell-based; conditions: for increase of IC50 in 30 μM glycine compared to 3 μM glycine: 100 μM glutamate; for extent of inhibition of GluN1/2A / IC50: activated by 100 μM glutamate plus 3 μM glycine; for IC50: read-out: IC50 for inhibition of GluN1/2A
GluN1/2A receptors, sequence (Q00959 20-1464 limits assumed, other chains not shown): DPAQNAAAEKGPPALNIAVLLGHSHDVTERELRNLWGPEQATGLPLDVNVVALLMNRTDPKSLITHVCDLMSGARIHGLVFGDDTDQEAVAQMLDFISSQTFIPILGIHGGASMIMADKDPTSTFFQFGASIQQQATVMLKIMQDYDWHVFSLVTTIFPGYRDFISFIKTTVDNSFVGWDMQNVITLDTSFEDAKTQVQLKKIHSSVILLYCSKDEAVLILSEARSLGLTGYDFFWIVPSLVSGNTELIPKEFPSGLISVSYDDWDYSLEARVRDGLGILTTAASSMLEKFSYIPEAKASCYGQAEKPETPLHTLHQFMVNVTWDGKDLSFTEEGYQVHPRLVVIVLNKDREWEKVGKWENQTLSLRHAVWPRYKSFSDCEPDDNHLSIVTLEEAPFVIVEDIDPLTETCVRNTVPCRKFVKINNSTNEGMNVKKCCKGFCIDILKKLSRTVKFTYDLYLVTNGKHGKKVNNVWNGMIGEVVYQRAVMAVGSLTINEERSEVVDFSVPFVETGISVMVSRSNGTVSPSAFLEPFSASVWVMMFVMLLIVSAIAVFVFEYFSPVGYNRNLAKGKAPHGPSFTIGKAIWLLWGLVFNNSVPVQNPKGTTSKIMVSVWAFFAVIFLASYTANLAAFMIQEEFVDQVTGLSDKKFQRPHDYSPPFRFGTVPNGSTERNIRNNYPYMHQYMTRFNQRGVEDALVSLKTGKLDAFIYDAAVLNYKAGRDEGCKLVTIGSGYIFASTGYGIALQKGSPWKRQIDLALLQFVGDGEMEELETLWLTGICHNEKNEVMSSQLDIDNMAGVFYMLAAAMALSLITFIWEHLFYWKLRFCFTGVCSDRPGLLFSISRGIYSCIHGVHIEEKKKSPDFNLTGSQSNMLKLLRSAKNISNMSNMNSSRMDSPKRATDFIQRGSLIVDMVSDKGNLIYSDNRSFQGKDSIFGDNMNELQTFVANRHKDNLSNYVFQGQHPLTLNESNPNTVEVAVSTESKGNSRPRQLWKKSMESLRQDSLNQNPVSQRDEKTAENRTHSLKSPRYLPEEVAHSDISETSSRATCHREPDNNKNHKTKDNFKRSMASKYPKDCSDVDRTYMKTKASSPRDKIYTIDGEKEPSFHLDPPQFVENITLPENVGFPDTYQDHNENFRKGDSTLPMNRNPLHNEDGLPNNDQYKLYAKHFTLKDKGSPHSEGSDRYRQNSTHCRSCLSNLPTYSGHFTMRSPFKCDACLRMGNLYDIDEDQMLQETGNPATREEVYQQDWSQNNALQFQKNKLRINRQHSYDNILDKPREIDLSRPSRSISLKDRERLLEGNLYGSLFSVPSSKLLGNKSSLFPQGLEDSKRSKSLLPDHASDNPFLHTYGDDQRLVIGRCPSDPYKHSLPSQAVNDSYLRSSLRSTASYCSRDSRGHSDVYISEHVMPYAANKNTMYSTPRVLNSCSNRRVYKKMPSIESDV

[5] = target: GluN1/2A receptors with GluN1-Y535F (Rattus norvegicus, UniProt P35439+Q00959, Y535F); experiment: Schild analysis of TCN-201, GluN1-Y535F; format: cell-based
[6] = target: wild type GluN1/2A receptors (Rattus norvegicus, UniProt P35439+Q00959); format: cell-based
[7] = target: GluN1/2A receptors with GluN1-F754V (Rattus norvegicus, UniProt P35439+Q00959, F754V); experiment: Glycine concentration-response and Schild analysis, GluN1-F754V; format: cell-based
GluN1/2A receptors with GluN1-F754V, sequence (Q00959 20-1464 limits assumed, other chains not shown): as above

[8] = target: GluN1/2A receptors with GluN1-R755A (Rattus norvegicus, UniProt P35439+Q00959, R755A); experiment: TCN-201 inhibition, GluN1-R755A; format: cell-based
[9] = target: GluN1/2A receptors with GluN1-Y535L (Rattus norvegicus, UniProt P35439+Q00959, Y535L); experiment: Schild analysis of TCN-201, GluN1-Y535L; format: cell-based
[10] = target: GluN1/2A receptors with GluN2A-V783F (Rattus norvegicus, UniProt P35439+Q00959, V783F); experiment: Glycine concentration-response and Schild analysis, GluN2A-V783F; format: cell-based; conditions: read-out: binding affinity KB
[11] = target: GluN1/2A receptors with GluN2A-V783A (Rattus norvegicus, UniProt P35439+Q00959, V783A); experiment: Glycine concentration-response and Schild analysis, GluN2A-V783A; format: cell-based
[12] = target: GluN1/2A receptors with GluN1-F754L (Rattus norvegicus, UniProt P35439+Q00959, F754L); experiment: Glycine concentration-response and Schild analysis, GluN1-F754L; format: cell-based
[13] = target: GluN1/2B receptors (Rattus norvegicus, UniProt P35439+Q00960); format: cell-based
GluN1/2B receptors, sequence (Q00960 27-1482, other chains not shown): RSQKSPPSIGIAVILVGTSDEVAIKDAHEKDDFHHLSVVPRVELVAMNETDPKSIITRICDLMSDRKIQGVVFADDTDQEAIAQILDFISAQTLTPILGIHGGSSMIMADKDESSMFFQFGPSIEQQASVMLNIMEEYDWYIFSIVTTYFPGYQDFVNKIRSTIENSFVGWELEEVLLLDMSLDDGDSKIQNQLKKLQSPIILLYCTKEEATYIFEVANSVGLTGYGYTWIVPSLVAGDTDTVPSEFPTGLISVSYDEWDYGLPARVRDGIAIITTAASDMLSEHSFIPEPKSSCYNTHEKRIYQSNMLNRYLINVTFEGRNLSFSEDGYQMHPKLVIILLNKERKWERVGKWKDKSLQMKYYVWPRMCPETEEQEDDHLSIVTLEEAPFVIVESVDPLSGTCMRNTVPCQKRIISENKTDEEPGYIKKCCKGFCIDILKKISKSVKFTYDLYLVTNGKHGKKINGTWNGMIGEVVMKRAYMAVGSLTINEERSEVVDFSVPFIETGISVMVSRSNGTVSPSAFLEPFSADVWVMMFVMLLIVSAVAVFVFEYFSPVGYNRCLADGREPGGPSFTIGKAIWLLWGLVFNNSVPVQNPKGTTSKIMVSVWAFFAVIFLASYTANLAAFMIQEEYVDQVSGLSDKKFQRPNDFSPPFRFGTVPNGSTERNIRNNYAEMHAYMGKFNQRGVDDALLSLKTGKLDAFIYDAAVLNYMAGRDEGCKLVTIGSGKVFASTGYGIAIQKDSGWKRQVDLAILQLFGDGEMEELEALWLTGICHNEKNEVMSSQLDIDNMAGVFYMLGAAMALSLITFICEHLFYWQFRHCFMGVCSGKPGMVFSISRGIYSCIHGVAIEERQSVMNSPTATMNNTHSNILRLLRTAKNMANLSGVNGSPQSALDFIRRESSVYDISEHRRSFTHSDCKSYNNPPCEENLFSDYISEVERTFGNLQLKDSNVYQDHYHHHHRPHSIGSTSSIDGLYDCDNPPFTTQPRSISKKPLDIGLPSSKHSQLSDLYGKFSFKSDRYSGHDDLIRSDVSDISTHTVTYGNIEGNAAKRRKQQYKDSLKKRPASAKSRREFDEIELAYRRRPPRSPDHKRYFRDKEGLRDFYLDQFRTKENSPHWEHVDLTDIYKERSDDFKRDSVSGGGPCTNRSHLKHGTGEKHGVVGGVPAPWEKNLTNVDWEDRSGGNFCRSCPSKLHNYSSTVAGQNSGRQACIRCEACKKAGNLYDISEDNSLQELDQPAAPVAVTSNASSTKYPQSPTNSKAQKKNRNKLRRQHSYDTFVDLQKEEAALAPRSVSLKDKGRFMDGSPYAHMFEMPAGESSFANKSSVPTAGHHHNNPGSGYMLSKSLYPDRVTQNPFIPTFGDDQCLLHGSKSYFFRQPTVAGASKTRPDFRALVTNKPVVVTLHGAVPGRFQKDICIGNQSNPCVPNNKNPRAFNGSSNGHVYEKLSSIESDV

SMILES | selectivity for GluN1/2A over GluN1/2B-D [1] | maximal concentration used, limited by compound solubility [2] [µM] | effect on glutamate-activated responses from crosslinked GluN1-CC/2A [3] | increase of IC50 in 30 μM glycine compared to 3 μM glycine ([4]; GluN1/2A) [fold] | maximal inhibition ([4]; GluN1/2A, 300 μM glycine) | extent of inhibition of GluN1/2A [4] | IC50 [4] [nM] | also measured
Cc1ncc(CNC(=O)c2cnc(CNS(=O)(=O)c3ccc(F)c(Cl)c3)cn2)s1 [MPX-004] | strict selectivity | 10 | significant potentiation | 3.8 | 71% ± 4% | nearly complete inhibition | ~200 | –
O=C(NNC(=O)c1ccc(CNS(=O)(=O)c2ccc(F)c(Cl)c2)cc1)c1ccccc1 [TCN-201] | strict selectivity | 5 | – | – | – | nearly complete inhibition | ~200 | allosteric constant compared to wild type [5]: virtually unchanged; binding affinity KB compared to wild type [5]: virtually unchanged; maximal increase of glycine EC50 (1/α) [6]: 143 fold; allosteric constant α ([6]; Schild analysis): 0.007; allosteric constant [7]: 0.086; maximal increase of glycine EC50 (1/α) [7]: 12 fold; Kb ([7]; read-out: binding affinity KB): 131 nM; inhibition [8]: abolished; allosteric constant [9]: 0.016; Kb [10]: 186 nM; allosteric constant α [11]: 0.001; inhibition in 300 μM glycine ([4]; GluN1/2A, 300 μM glycine): markedly diminished; allosteric constant [12]: 0.018; binding affinity KB compared to wild type [12]: little to no change
Cc1ncc(CNC(=O)c2cnc(CNS(=O)(=O)c3ccc(F)c(F)c3)c(C)n2)s1 [MPX-007] | – | 30 | – | 3.2 | 95% ± 1% | nearly complete inhibition | ~200 | concentrations at which GluN1/2B-D receptors are inhibited [1]: 10 to 30 µM; glycine-sensitivity of inhibition of GluN1/2B [13]: sensitive to the glycine concentration; inhibition of GluN1/2B receptors ([13]; 30 μM compound, 3 μM glycine, n = 6): 48% ± 3%
O=C(O)c1cc(O)c2ccc(Cl)cc2n1 [7CKA] | – | – | not sensitive | – | – | – | – | –
